Patent US12486218B2, “Compounds advantageous in the treatment of central nervous system diseases and disorders” (AurimMed Pharma, Inc., priority 2008, dated 2025)
Where two headings read alike, the source gives them in different places.

What was measured:
[1] = tested on: mice; test: 6 Hz (minimal clonic seizure) model, mice i.p.; format: in vivo; conditions: for activity in the 6 Hz (minimal clonic seizure) model: mice; for 6 Hz (32 mA), fraction of animals: mice i.p.
[2] = tested on: rat dopaminergic N27 cells; test: N27 protection assay against oxidative stress (H2O2 or MPP+; MTT and LDH); format: cell-based; conditions: drug 24 hours before 200 μM H2O2 or 640 μM MPP+
Description: FIGS. 20A-25D data are shown illustrating neuroprotective and neuroregenerative effects observed in rat dopaminergic N27 cells. Rat dopaminergic N27 cells are commonly used in in vitro and in vivo model systems for studying Parkinson's disease. Parkinson's disease is a neurodegenerative disorder of the central nervous system that affects more than 6 million people worldwide. The motor symptoms of Parkinson's disease result from the death of dopamine generating cells in the substantia nigra, a region of the midbrain.
The N27 rat dopaminergic neuron cell line was harvested from E12 rat mesencephalic tissue and was transfected with SV40 to immortalize the cell line. The N27 cell line, when injected into the striata of 6-hydroxydopamine-lesioned rats (an animal model of PD) caused a time-dependent improvement in neurological deficits. This immortalized cell line has been carefully characterized in studies of dopamine biosynthesis, neurotoxicity and used as a dopaminergic neuron model studies.
The N27 in vitro Parkinson's disease model included a test of cell viability and cell toxicity in response to exposure to oxidative stress (e.g., either 200 μM H2O2 or 640 μM MPP+).
Cell viability was tested using the MTT assay. The MTT assay is a colorimetric analysis based on the activities of mitochondrial NAD(P)H-dependent cellular oxidoreductase enzymes. These enzymes are capable of reducing the tetrazolium dye, MTT [3-(4,5-dimethylthiazol-2-yl)-2,5-diphenyltetrazolium] bromide, to an insoluble formazan (purple). […] More viable cells equal more accumulation of the insoluble formazan dye.
Cell toxicity was tested using the […] (LDH) assay. Cells that are stressed secrete LDH. In general, the more cells are stressed, the LDH they secrete into their media. The LDH assay is a reliable colorimetric assay to measure quantitatively the […] (LDH) that is released into the cell culture media from damaged cells as a biomarker for cytotoxicity and cytolysis.
FIGS. 20A-25D present data from two types of assays: protection and recovery assays. In the protection assays, the drug candidate was applied to the cells at various concentrations for 24 hours, followed by the exposure to oxidative stress (either 200 μM H2O2 or 640 μM MPP+) for measuring neuroprotective effect. H2O2 provides a broad measure of oxidative stress, while MPP+ gives a more specific oxidative stress to dopaminergic neurons.
The protection assay results are shown in panels A-C of FIGS. 20-25 In the recovery assays, the cells were first damaged by exposure to H2O2 and then various concentrations of the drug were applied to the cells. The results for the recovery assays are shown the D panels of FIGS. 20-25.

[3] = tested on: mice; test: Maximal Electroshock Seizure (MES) test, mice i.p.; format: in vivo; conditions: for MES, fraction of animals: mice i.p.; for activity in the MES test: mice
[4] = tested on: SMN2 promoter; test: SMN2 promoter β-lactamase reporter assay in NSC34 motor neuron-like cells; format: cell-based; conditions: for Promoter (SMN2 promoter test, summary YES/NO): Table 13 summary; for SMN2 promoter activity: treatment for 19 hours at a concentration of 1 μM
Description: FIG. 30 illustrates a screen for SMN2 expression of a number of compounds described herein.
SMN2 promoter activity was measured using NSC34 motor neuron-like cells stably transfected with a β-lactamase (BLA) reporter gene under the control of a 3.4-kilobase fragment of the SMN2 promoter. D156844 was used as a positive control for this assay.

[5] = tested on: inclusion of exon 7 in SMN2 mRNAs; test: Exon 7 inclusion BLA reporter assay in NSC34 cell line; format: cell-based; conditions: for effect on the inclusion of exon 7 in SMN2 transcripts / exon 7 test, particularly strong hits: NSC34 exon 7 BLA reporter cells; for Exon 7 inclusion (summary YES/NO): Table 13 summary
Description: To measure changes in the inclusion of exon 7 in SMN2 mRNAs, another NSC34 cell line was used that stably transfected with a reporter construct which expresses BLA when exon 7 is included in the SMN2 minigene mRNAs. 5-(N-ethyl-N-isopropyl)-amiloride (EIPA) was used as a positive control for this assay. Data for tis assay is illustrated in FIG. 30.

[6] = tested on: rats; test: Pilocarpine-induced Status Epilepticus in Rats (prevention; intervention @ 30 min)
Description: The animal testing was performed using the protocols developed in the Anticonvulsant Screening Program (ASP) at the National Institute of Neurological Disorders and Stroke (NINDS), National Institutes of Health (NIH).

[7] = tested on: mice; test: Subcutaneous Metrazol Seizure threshold (s.c. MET) test, mice i.p.; format: in vivo; conditions: for activity in the s.c. MET test: mice, at 300 mg/kg; for s.c. MET, fraction of animals: mice i.p.
[8] = tested on: mice; test: Minimal motor impairment (MID50), mice i.p.; conditions: mice i.p.
Description: The animal testing was performed according to methods known in the relevant art.

[9] = Rattus norvegicus, 0.5 h, read-out: Intervention @ 30 min, Protection
[10] = Rattus norvegicus, read-out: Prevention, Protection

CC1CCN(C(=O)CC(C)c2ccc(OC(F)(F)F)cc2)CC1 (centres unmarked) [BK, 1-(4-Methyl-piperidin-1-yl)-3-(4-trifluoromethoxy-phenyl)-butan-1-one]
activity in the 6 Hz (minimal clonic seizure) model ([1]; at 100 mg/kg): activity | neuroprotective effect against H2O2 and MPP+ oxidative stresses (MTT and LDH assays) [2]: statistically significant, dose-dependent neuroprotection | MES, fraction of animals ([3]; 100 mg/kg @ 0.5 hr): 1/3 | MES, fraction of animals ([3]; 100 mg/kg @ 2.0 hr): 2/3 | Promoter (SMN2 promoter test, summary YES/NO) [4]: YES | SMN2 promoter activity [4]: increased SMN2 promoter activity

CC(CC(N)=O)c1ccc2c(c1)OCO2 (centres unmarked) [L, 3-(3,4-methylenedioxy-phenyl)butyramide]
effect on the inclusion of exon 7 in SMN2 transcripts [5]: positive effect on the inclusion of exon 7 | Exon 7 inclusion (summary YES/NO) [5]: YES | responders at 600 mg/kg [6, 9]: 29% | responders at 450 mg/kg [6, 10]: 100% | activity in the s.c. MET test [7]: activity | activity in the MES test ([3]; at 300 mg/kg): activity | SMN2 promoter activity [4]: increased SMN2 promoter activity

NC(=O)CC1(c2ccc(Cl)cc2)CCCC1 [AJ]
effect on the inclusion of exon 7 in SMN2 transcripts [5]: positive effect on the inclusion of exon 7 | exon 7 test, particularly strong hits [5]: Particularly strong hits | Exon 7 inclusion (summary YES/NO) [5]: YES | s.c. MET, fraction of animals ([7]; 300 mg/kg @ 0.5 hrs): 1/1 @ 0.5 hrs, | MES, fraction of animals ([3]; 100 mg/kg @ 0.25 hr): 3/3 | MES, fraction of animals ([3]; 100 mg/kg @ 1.0 hr): 1/3 | Promoter (SMN2 promoter test, summary YES/NO) [4]: YES | SMN2 promoter activity [4]: increased SMN2 promoter activity

CC(O)(CC(N)=O)c1cccc(OC(F)(F)F)c1 (racemic) [CD]
MID50, fraction of animals ([8]; 100 mg/kg @ 0.5 hr): 1/8 @ 0.50 hr, | MID50, fraction of animals ([8]; 300 mg/kg @ 0.5 hr): 4/4 @ 0.5 | MID50, fraction of animals ([8]; 300 mg/kg @ 4.0 hr): hr & 2/2 | s.c. MET, fraction of animals ([7]; 30 mg/kg @ 0.5 hr): 3/5@ 0.50 | s.c. MET, fraction of animals ([7]; 100 mg/kg @ 0.5 hr): 1/1 @ 0.5, | s.c. MET, fraction of animals ([7]; 100 mg/kg @ 4.0 hr): 1/1 @ 0.5,

Cc1nc(C)c(C(C)CC(N)=O)cc1C(C)CC(N)=O (mixture of isomers) [DA]
neuroprotective effect against H2O2 and MPP+ oxidative stresses (MTT and LDH assays) [2]: statistically significant, dose-dependent neuroprotection | Promoter (SMN2 promoter test, summary YES/NO) [4]: YES | SMN2 promoter activity [4]: increased SMN2 promoter activity

C[C@H](CC(N)=O)c1ccccc1 [Compound C, (R)-3-Phenylbutyramide]
MID50, fraction of animals ([8]; 100 mg/kg @ 0.5 hr): 1/8 @0.5 hr | MES, fraction of animals ([3]; 100 mg/kg @ 0.5 hr): 1/6 @0.5 hr, | activity in the MES test ([3]; at 100 mg/kg): activity

Cc1cc(C(CC(N)=O)C2CC2)ccc1F (centres unmarked) [AO, 3-Cyclopropyl-3-(4-fluoro-3-methylphenyl)-propionamide]
responders at 97 mg/kg [6, 9]: 50% | responders at 65 mg/kg [6, 10]: 86% | neuroprotective effect against H2O2 and MPP+ oxidative stresses (MTT and LDH assays) [2]: statistically significant, dose-dependent neuroprotection | activity in the s.c. MET test [7]: activity | MES, fraction of animals ([3]; 100 mg/kg @ 0.5 hr): 1/3 @ | activity in the MES test ([3]; at 100 mg/kg): activity

COc1ccc2cc(C(C)CC(N)=O)ccc2c1 (centres unmarked) [Compound AE, 3-(6-Methoxynaphthalen-2-yl)-butyramide]
6 Hz (32 mA), fraction of animals ([1]; 200 mg/kg @ 0.25 hr): 2/4 @ 0.25 hrs | activity in the 6 Hz (minimal clonic seizure) model ([1]; at 200 mg/kg): activity | neuroprotective effect against H2O2 and MPP+ oxidative stresses (MTT and LDH assays) [2]: statistically significant, dose-dependent neuroprotection | activity in the MES test ([3]; at 100 mg/kg): activity

COCCNC(=O)CC(C)c1ccc(OC(F)(F)F)cc1 (centres unmarked) [BL, N-(2-Methoxy-ethyl)-3-(4-trifluoromethoxy-phenyl)-butyramide]
activity in the 6 Hz (minimal clonic seizure) model ([1]; at 100 mg/kg): activity | neuroprotective effect against H2O2 and MPP+ oxidative stresses (MTT and LDH assays) [2]: statistically significant, dose-dependent neuroprotection | MES, fraction of animals ([3]; 100 mg/kg @ 0.25 hr): 2/3 @ | activity in the MES test ([3]; at 100 mg/kg): activity

COCCCNC(=O)CC(C)c1ccc(OC(F)(F)F)cc1 (centres unmarked) [BM, N-(3-Methoxy-propyl)-3-(4-trifluoromethoxy-phenyl)-butyramide]
6 Hz (32 mA), fraction of animals ([1]; 100 mg/kg @ 0.5 hr): 1/4 @ 0.5 hr | neuroprotective effect against H2O2 and MPP+ oxidative stresses (MTT and LDH assays) [2]: statistically significant, dose-dependent neuroprotection | activity in the s.c. MET test [7]: activity | activity in the MES test ([3]; at 300 mg/kg): activity | SMN2 promoter activity [4]: increased SMN2 promoter activity

CNC(=O)CC(C)c1ccc2c(c1)OCO2 (centres unmarked) [Compound M, N-methyl-3-(3,4-methylenedioxy-phenyl)butyramide]
responders at 600 mg/kg [6, 10]: 100% | neuroprotective effect against H2O2 and MPP+ oxidative stresses (MTT and LDH assays) [2]: potent dose-dependent neuroprotective effects | Promoter (SMN2 promoter test, summary YES/NO) [4]: YES | SMN2 promoter activity [4]: increased SMN2 promoter activity

CC(CC(=O)N(C)C)c1ccc2c(c1)OCO2 (centres unmarked) [Compound N, N,N-dimethyl-3-(3,4-methylenedioxy-phenyl)butyramide]
neuroprotective effect against H2O2 and MPP+ oxidative stresses (MTT and LDH assays) [2]: potent dose-dependent neuroprotective effects | MES, fraction of animals ([3]; 100 mg/kg @ 0.5 hr): 1/3 @0.5 hr, | activity in the MES test ([3]; at 300 mg/kg): activity

CC(CC(N)=O)c1ccc(S(C)(=O)=O)cc1 (racemic) [AV]
Prevention, Protection ([6]; rats, pilocarpine-induced status epilepticus, dose 600 mg/kg): 25% | neuroprotective effect against H2O2 and MPP+ oxidative stresses (MTT and LDH assays) [2]: statistically significant, dose-dependent neuroprotection

COc1ccc(C(CC(N)=O)C2CC2)cc1C (centres unmarked) [AN, 3-Cyclopropyl-3-(4-methoxy-3-methyl-phenyl)propionamide]
6 Hz (32 mA), fraction of animals ([1]; 100 mg/kg @ 0.25 hr): 4/4 | 6 Hz (32 mA), fraction of animals ([1]; 100 mg/kg @ 0.5 hr): 3/4 | 6 Hz (32 mA), fraction of animals ([1]; 100 mg/kg @ 1.0 hr): 1/4 @ | activity in the 6 Hz (minimal clonic seizure) model ([1]; at 100 mg/kg): activity | effect on the inclusion of exon 7 in SMN2 transcripts [5]: positive effect on the inclusion of exon 7 | MES, fraction of animals ([3]; 100 mg/kg @ 0.25 hr): 1/3 @ | activity in the MES test ([3]; at 100 mg/kg): activity | Promoter (SMN2 promoter test, summary YES/NO) [4]: YES | SMN2 promoter activity [4]: increased SMN2 promoter activity

CC(CC(N)=O)c1ccc(-c2ccccc2)c(F)c1 (centres unmarked) [Compound AX, 3-(2-Fluoro-biphenyl-4-yl)butyramide]
6 Hz (32 mA), fraction of animals ([1]; 100 mg/kg @ 0.5 hr): 3/4 | 6 Hz (32 mA), fraction of animals ([1]; 100 mg/kg @ 1.0 hr): 2/4 | 6 Hz (32 mA), fraction of animals ([1]; 100 mg/kg @ 2.0 hr): 1/4 @ | activity in the 6 Hz (minimal clonic seizure) model ([1]; at 100 mg/kg): activity | effect on the inclusion of exon 7 in SMN2 transcripts [5]: positive effect on the inclusion of exon 7 | exon 7 test, particularly strong hits [5]: Particularly strong hits | Exon 7 inclusion (summary YES/NO) [5]: YES | SMN2 promoter assay, particularly strong hits ([4]; NSC34 BLA reporter cells): particularly strong hits | Promoter (SMN2 promoter test, summary YES/NO) [4]: YES | SMN2 promoter activity [4]: increased SMN2 promoter activity
